US20240287138A1, “CYCLIC PEPTIDES FOR INHIBITING TNF RECEPTOR 1 ACTIVITY” (Merck Sharp & Dohme LLC, priority 2023, published 2024)
pIC50, pKd: −log10 of the molar value. Bridge positions count the residues as written; N and C are the ends. Square brackets hold non-standard residues; d marks the D form. Peptide text beside a SMILES is read from it. Sar = CNCC(=O)O

What was measured:
[1] = target: T1, human TNFR1 extracellular domain (ECD) protein (Homo sapiens, UniProt P19438); assay: SPR binding affinity to captured human TNFR1 ECD
T1 construct: HRV 3C protease cleavage site (C); 6His (C, cleaved yes); made in house; host or cells: Sf21 insect cells (baculovirus), secreted
T1 sequence (P19438 30-211): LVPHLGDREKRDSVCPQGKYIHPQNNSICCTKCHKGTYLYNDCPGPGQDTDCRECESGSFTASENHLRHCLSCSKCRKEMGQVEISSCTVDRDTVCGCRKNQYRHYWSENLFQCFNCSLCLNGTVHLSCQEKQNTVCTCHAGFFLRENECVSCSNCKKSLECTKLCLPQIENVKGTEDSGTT
How it was run: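 Biotinylated human TNFR1 or TNFR2 ECD (C-terminal Avi-tag, Sf21-expressed) captured on a regenerable streptavidin chip; peptide analytes flowed in 10 mM HEPES pH 7.4, 150 mM NaCl, 3 mM EDTA, 0.05% P20, 2% DMSO. kon and koff measured; affinity calculated from the rate constants.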

[2] = target: T2, human soluble TNFR1 (sTNFR1) (Homo sapiens, UniProt P19438); assay: Human sTNFR1-peptide displacement assay (LanthaScreen Eu TR-FRET binding assay)
T2 construct: made in house; host or cells: Sf21 (baculovirus)
T2 sequence (P19438 with tags, fused parts or gaps): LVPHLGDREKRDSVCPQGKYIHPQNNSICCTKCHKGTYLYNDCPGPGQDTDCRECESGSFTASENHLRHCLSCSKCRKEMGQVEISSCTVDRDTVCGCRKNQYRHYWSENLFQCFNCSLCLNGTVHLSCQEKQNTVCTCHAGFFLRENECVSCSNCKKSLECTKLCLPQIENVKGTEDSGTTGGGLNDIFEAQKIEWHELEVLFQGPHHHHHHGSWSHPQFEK
How it was run: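 Readout is the 665/615 nm TR-FRET ratio (Eu anti-His donor, streptavidin-Alexa647 acceptor), normalized to DMSO and saturating displacer, fit by Morrison-based five-parameter logistic for Kd^app. His-tagged sTNFR1 (1-211) prebound to 100 nM biotinylated peptide SEQ ID NO.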

SMILES: CN1CC(=O)N[C@@H](CC(N)=O)C(=O)N[C@@H](Cc2ccc(O)cc2)C(=O)N[C@@H](Cc2c[nH]c3ccccc23)C(=O)N[C@@H](CO)C(=O)N[C@@H](Cc2ccc(O)cc2)C(=O)N[C@@H](Cc2ccc(O)cc2)C(=O)N(C)CC(=O)N[C@@H](Cc2c[nH]c3ccccc23)C(=O)N[C@H](C(=O)NCC(=O)N[C@@H](CCC(=O)O)C(=O)N[C@@H](CCC(=O)O)C(N)=O)CSCC(=O)N[C@@H](Cc2ccccc2)C(=O)N[C@@H](Cc2ccc(O)cc2)C(=O)N[C@@H](CO)C(=O)N[C@@H](Cc2c[nH]c3ccccc23)C1=O [SEQ ID NO. 289] ({CH2CO}-FYSW[Sar]NYWSYY[Sar]WCGEE-NH2; thioether N-14)
- pKd [1]: 8.13
- pIC50 [2]: 8.01
